Assay results: PubChem BioAssay (NCI)
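Following 48 hours of exposure in 96-well plates, responses at five concentrations were used to interpolate endpoints linearly. TGI: concentration producing complete growth inhibition.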

What was measured:
Assay in all cases: DTP human tumour cell line panel, 48 h
UACC-62 melanoma = test system: UACC-62 melanoma
MALME-3M melanoma = test system: MALME-3M melanoma
PC-3 prostate = test system: PC-3 prostate
K-562 leukemia = test system: K-562 leukemia
RXF 393 renal = test system: RXF 393 renal
CAKI-1 renal = test system: CAKI-1 renal
OVCAR-3 ovarian = test system: OVCAR-3 ovarian
IGROV1 ovarian = test system: IGROV1 ovarian
OVCAR-8 ovarian = test system: OVCAR-8 ovarian
U251 CNS = test system: U251 CNS
HOP-92 NSCLC = test system: HOP-92 NSCLC
SK-OV-3 ovarian = test system: SK-OV-3 ovarian
NCI-H522 lung = test system: NCI-H522 lung
EKVX NSCLC = test system: EKVX NSCLC
T-47D breast = test system: T-47D breast
A549 NSCLC = test system: A549 NSCLC
TK-10 renal = test system: TK-10 renal
MCF7 breast = test system: MCF7 breast
SK-MEL-28 melanoma = test system: SK-MEL-28 melanoma
NCI-H226 lung = test system: NCI-H226 lung
ACHN renal = test system: ACHN renal
COLO 205 colon = test system: COLO 205 colon
UO-31 renal = test system: UO-31 renal
HL-60(TB) leukemia = test system: HL-60(TB) leukemia
MOLT-4 leukemia = test system: MOLT-4 leukemia
A498 renal = test system: A498 renal
MDA-MB-231 breast = test system: MDA-MB-231 breast
HS 578T breast = test system: HS 578T breast
SR leukemia = test system: SR leukemia
SF-539 CNS = test system: SF-539 CNS
HT29 colon = test system: HT29 colon
LOX IMVI melanoma = test system: LOX IMVI melanoma
SN12C renal = test system: SN12C renal
NCI/ADR-RES ovarian = test system: NCI/ADR-RES ovarian
KM12 colon = test system: KM12 colon
SF-268 CNS = test system: SF-268 CNS
SNB-19 CNS = test system: SNB-19 CNS
786-0 renal = test system: 786-0 renal
OVCAR-4 ovarian = test system: OVCAR-4 ovarian
HCC-2998 colon = test system: HCC-2998 colon
HOP-62 NSCLC = test system: HOP-62 NSCLC
OVCAR-5 ovarian = test system: OVCAR-5 ovarian
NCI-H23 lung = test system: NCI-H23 lung
SK-MEL-5 melanoma = test system: SK-MEL-5 melanoma
RPMI-8226 leukemia = test system: RPMI-8226 leukemia
BT-549 breast = test system: BT-549 breast
SNB-75 CNS = test system: SNB-75 CNS
MDA-N = test system: MDA-N
DU-145 prostate = test system: DU-145 prostate
NCI-H460 lung = test system: NCI-H460 lung
HCT-15 colon = test system: HCT-15 colon
M14 melanoma = test system: M14 melanoma
SW-620 colon = test system: SW-620 colon
SF-295 CNS = test system: SF-295 CNS
HCT-116 colon = test system: HCT-116 colon
MDA-MB-435 = test system: MDA-MB-435
UACC-257 melanoma = test system: UACC-257 melanoma
CCRF-CEM leukemia = test system: CCRF-CEM leukemia
SK-MEL-2 melanoma = test system: SK-MEL-2 melanoma

CNC(=O)CCC(NC(=O)OC(C)(C)C)C(=O)NC(Cc1ccc(NC(=O)CCCCC(C)=O)cc1)C(=O)NCC(=O)NC (centres undefined)
TGI (UACC-62 melanoma): > 100 µM
TGI (MALME-3M melanoma): > 100 µM
TGI (PC-3 prostate): > 100 µM
TGI (K-562 leukemia): > 100 µM
TGI (RXF 393 renal): > 100 µM
TGI (CAKI-1 renal): > 100 µM
TGI (OVCAR-3 ovarian): > 100 µM
TGI (IGROV1 ovarian): > 100 µM
TGI (OVCAR-8 ovarian): > 100 µM
TGI (U251 CNS): > 100 µM
TGI (HOP-92 NSCLC): > 100 µM
TGI (SK-OV-3 ovarian): > 100 µM
TGI (NCI-H522 lung): > 100 µM
TGI (EKVX NSCLC): > 100 µM
TGI (T-47D breast): > 100 µM
TGI (A549 NSCLC): > 100 µM
TGI (TK-10 renal): > 100 µM
TGI (MCF7 breast): > 100 µM
TGI (SK-MEL-28 melanoma): > 100 µM
TGI (NCI-H226 lung): > 100 µM
TGI (ACHN renal): > 100 µM
TGI (COLO 205 colon): > 100 µM
TGI (UO-31 renal): > 100 µM
TGI (HL-60(TB) leukemia): > 100 µM
TGI (MOLT-4 leukemia): > 100 µM
TGI (A498 renal): > 100 µM
TGI (MDA-MB-231 breast): > 100 µM
TGI (HS 578T breast): > 100 µM
TGI (SR leukemia): > 100 µM
TGI (SF-539 CNS): > 100 µM
TGI (HT29 colon): > 100 µM
TGI (LOX IMVI melanoma): > 100 µM
TGI (SN12C renal): > 100 µM
TGI (NCI/ADR-RES ovarian): > 100 µM
TGI (KM12 colon): > 100 µM
TGI (SF-268 CNS): > 100 µM
TGI (SNB-19 CNS): > 100 µM
TGI (786-0 renal): > 100 µM
TGI (OVCAR-4 ovarian): > 100 µM
TGI (HCC-2998 colon): > 100 µM
TGI (HOP-62 NSCLC): > 100 µM
TGI (OVCAR-5 ovarian): > 100 µM
TGI (NCI-H23 lung): > 100 µM
TGI (SK-MEL-5 melanoma): > 100 µM
TGI (RPMI-8226 leukemia): > 100 µM
TGI (BT-549 breast): > 100 µM
TGI (SNB-75 CNS): > 100 µM
TGI (MDA-N): > 100 µM
TGI (DU-145 prostate): > 100 µM
TGI (NCI-H460 lung): > 100 µM
TGI (HCT-15 colon): > 100 µM
TGI (M14 melanoma): > 100 µM
TGI (SW-620 colon): > 100 µM
TGI (SF-295 CNS): > 100 µM
TGI (HCT-116 colon): > 100 µM
TGI (MDA-MB-435): > 100 µM

C[C@H](CCC(=O)NN)[C@H]1CC[C@H]2[C@@H]3CC[C@@H]4C[C@H](O)CC[C@]4(C)[C@H]3CC[C@]12C
TGI (UACC-62 melanoma): > 100 µM
TGI (MALME-3M melanoma): > 100 µM
TGI (PC-3 prostate): > 100 µM
TGI (K-562 leukemia): 41.1 µM
TGI (RXF 393 renal): 67.2 µM
TGI (CAKI-1 renal): > 100 µM
TGI (OVCAR-3 ovarian): > 100 µM
TGI (IGROV1 ovarian): > 100 µM
TGI (OVCAR-8 ovarian): > 100 µM
TGI (U251 CNS): > 100 µM
TGI (HOP-92 NSCLC): > 100 µM
TGI (SK-OV-3 ovarian): > 100 µM
TGI (NCI-H522 lung): > 70.1 µM
TGI (EKVX NSCLC): > 100 µM
TGI (T-47D breast): > 100 µM
TGI (A549 NSCLC): > 100 µM
TGI (TK-10 renal): > 93.8 µM
TGI (MCF7 breast): 97.1 µM
TGI (SK-MEL-28 melanoma): > 100 µM
TGI (NCI-H226 lung): > 100 µM
TGI (UACC-257 melanoma): > 100 µM
TGI (ACHN renal): > 100 µM
TGI (COLO 205 colon): > 96 µM
TGI (UO-31 renal): > 100 µM
TGI (HL-60(TB) leukemia): 37.6 µM
TGI (MOLT-4 leukemia): > 52.7 µM
TGI (CCRF-CEM leukemia): > 72.1 µM
TGI (A498 renal): > 100 µM
TGI (MDA-MB-231 breast): > 100 µM
TGI (HS 578T breast): > 100 µM
TGI (SR leukemia): 62.2 µM
TGI (SF-539 CNS): > 100 µM
TGI (HT29 colon): > 100 µM
TGI (LOX IMVI melanoma): > 100 µM
TGI (SN12C renal): > 100 µM
TGI (NCI/ADR-RES ovarian): > 100 µM
TGI (KM12 colon): > 100 µM
TGI (SF-268 CNS): > 100 µM
TGI (SNB-19 CNS): > 100 µM
TGI (786-0 renal): > 100 µM
TGI (OVCAR-4 ovarian): > 100 µM
TGI (HCC-2998 colon): > 90.6 µM
TGI (HOP-62 NSCLC): > 100 µM
TGI (OVCAR-5 ovarian): > 100 µM
TGI (NCI-H23 lung): > 100 µM
TGI (SK-MEL-5 melanoma): 56.4 µM
TGI (RPMI-8226 leukemia): 59.9 µM
TGI (BT-549 breast): > 100 µM
TGI (MDA-N): > 100 µM
TGI (DU-145 prostate): > 88.8 µM
TGI (NCI-H460 lung): > 100 µM
TGI (HCT-15 colon): > 100 µM
TGI (M14 melanoma): 72.4 µM
TGI (SW-620 colon): > 100 µM
TGI (SK-MEL-2 melanoma): > 100 µM
TGI (SF-295 CNS): > 100 µM
TGI (HCT-116 colon): > 100 µM
TGI (MDA-MB-435): > 100 µM

Cc1sccc1C(=S)Nc1ccc(Cl)c(/C=N/OC(C)(C)C)c1
TGI (UACC-62 melanoma): 34.2 µM
TGI (MALME-3M melanoma): 31.1 µM
TGI (PC-3 prostate): 32.5 µM
TGI (RXF 393 renal): 39 µM
TGI (CAKI-1 renal): 24.4 µM
TGI (OVCAR-3 ovarian): 26.8 µM
TGI (IGROV1 ovarian): 29.4 µM
TGI (OVCAR-8 ovarian): 34.1 µM
TGI (U251 CNS): 62.1 µM
TGI (HOP-92 NSCLC): 35.3 µM
TGI (SK-OV-3 ovarian): 79.3 µM
TGI (NCI-H522 lung): 26.5 µM
TGI (EKVX NSCLC): 42.4 µM
TGI (T-47D breast): 22.8 µM
TGI (A549 NSCLC): 63.5 µM
TGI (TK-10 renal): 36.9 µM
TGI (MCF7 breast): 26.7 µM
TGI (SK-MEL-28 melanoma): 71 µM
TGI (NCI-H226 lung): 29.3 µM
TGI (UACC-257 melanoma): 35.1 µM
TGI (COLO 205 colon): 27.3 µM
TGI (UO-31 renal): 25 µM
TGI (HL-60(TB) leukemia): 38.6 µM
TGI (MOLT-4 leukemia): 30.7 µM
TGI (CCRF-CEM leukemia): > 100 µM
TGI (A498 renal): 46.8 µM
TGI (MDA-MB-231 breast): 27 µM
TGI (HS 578T breast): 62.3 µM
TGI (SR leukemia): 54.7 µM
TGI (SF-539 CNS): > 100 µM
TGI (HT29 colon): 27.6 µM
TGI (LOX IMVI melanoma): 73.9 µM
TGI (SN12C renal): 25.6 µM
TGI (NCI/ADR-RES ovarian): 45.1 µM
TGI (KM12 colon): 28.8 µM
TGI (SF-268 CNS): 43.9 µM
TGI (786-0 renal): 49.4 µM
TGI (OVCAR-4 ovarian): 32 µM
TGI (HCC-2998 colon): 30 µM
TGI (HOP-62 NSCLC): 30.6 µM
TGI (OVCAR-5 ovarian): 34.7 µM
TGI (NCI-H23 lung): 34.5 µM
TGI (SK-MEL-5 melanoma): 25.9 µM
TGI (RPMI-8226 leukemia): 27 µM
TGI (BT-549 breast): 35.2 µM
TGI (SNB-75 CNS): > 100 µM
TGI (MDA-N): 26.9 µM
TGI (DU-145 prostate): 29 µM
TGI (HCT-15 colon): 29 µM
TGI (M14 melanoma): 33.9 µM
TGI (SW-620 colon): > 100 µM
TGI (SK-MEL-2 melanoma): 28.8 µM
TGI (SF-295 CNS): 37.3 µM
TGI (HCT-116 colon): > 100 µM
TGI (MDA-MB-435): 50.9 µM
